Results: patent publication US12195804B2, “Treatment of squamous cell carcinoma” (Board of Regents, The University of Texas System, priority 2018, dated 2025)

Experiments:
[1] = test system: HN31 and UMSCC22A subcutaneous xenografts; test: Subcutaneous xenograft models of NOTCH1MUT HNSCC; assay type: in vivo, athymic nude mice; conditions: 1 mg/kg oral gavage daily 28 days
Method: (§1) FIGS. 8A-8D: PI3K/mTOR pathway inhibitors cause apoptosis and reduce tumor size in NOTCH1^MUT head and neck squamous cell carcinoma (HNSCC) in vivo. FIGS. 8A and 8B. The NOTCH1^MUT cell lines HN31 (FIG. 8A) and UMSCC22A (UM22A; FIG. 8B) were injected subcutaneously (SQ) into athymic nude mice. After tumors reached 150 mm^3, the mice were randomized to receive either vehicle control (2-hydroxypropyl-β-cyclodextrin) or 1 mg/kg GSK2126458 (GSK212) by oral gavage daily for 28 days. Tumor sizes were measured and tumor volumes were calculated at the indicated times, and the percent change in tumor volume at the end of therapy was calculated using the formula (final tumor volume−initial tumor volume/initial tumor volume)×100%. The percentages of TUNEL-positive cells were calculated from image quantification at 40× magnification. FIGS. 8C and 8D. HN31 (FIG. 8C) and UM22A (FIG. 8D) were implanted orthotopically (OT) into the anterior tongues of athymic nude mice. […] Tumor sizes were measured, and tumor volumes and percent changes in tumor volumes were calculated as above. […] The percentages of TUNEL-positive cells were calculated as described above. Data are means±standard deviations from 5 mice per group; p values were calculated using an unpaired t-test with the Welch correction. […]

[2] = test system: HN31 and UM22A orthotopic xenografts; test: Orthotopic tongue xenograft models of NOTCH1MUT HNSCC; assay type: in vivo, athymic nude mice
Method: as §1

PJ34 cells = test: CellTiter-Glo viability, PJ34 parental and NOTCH1 KO; assay type: cell-based, human; conditions: 72 hours
Method: FIGS. 9A-9D: NOTCH1 knockout (KO) sensitizes two NOTCH1^WT head and neck squamous cell carcinoma (HNSCC) cell lines to PI3K/mTOR pathway inhibition in vitro. Two NOTCH1^WT HNSCC cell lines (PJ34 and UMSCC49 [UM49]), parental cell lines, and NOTCH1 KO cell lines were treated with PI3K/mTOR pathway inhibitors. FIG. 9A. The CellTiter-Glo assay was used to assess the viability of cells treated for 72 hours with the indicated concentrations of GSK2126458 (GSK212). FIG. 9B. Western blot analysis of apoptosis markers, NOTCH1, and NOTCH intracellular domain (NICD) was performed after treatment with the indicated concentrations of GSK212 for 48 hours. FIG. 9C. Apoptosis in cells treated with 50 nM GSK212 or 200 nM BEZ235 for 48 hours was measured using an Annexin V/propidium iodide assay. Values are the means±standard deviations of three independent experiments. *p<0.05, unpaired two-tailed Student t-test. FIG. 9D. […] Colony areas as percentages of the control were measured using ImageJ. […]
Cell viability assay. […] Inhibitory concentration (ICs) and area under the curve (AUC) values were calculated using the drexplorer R package with a best-fit dose-response model (Zumsteg et al., 2016). The combination indices were calculated using the Chou-Talalay method (Cal et al., 2017) in CalcuSyn (Biosoft, Cambridge, UK). […]

In the case of COc1ncc(-c2ccc3nccc(-c4ccnnc4)c3c2)cc1NS(=O)(=O)c1ccc(F)cc1F [GSK2126458], the “apoptosis in tumors (TUNEL staining)” value [1] is reported as “significant apoptosis”, the tumor volume [1] is reported as “regressed” and the “tumor size compared with vehicle” value ([2]; 3 mg/kg oral gavage daily 28 days) is reported as “significantly reduced tumor size”. For the same compound, the “apoptosis in tumors (TUNEL staining)” value ([2]; 3 mg/kg oral gavage, end of treatment) was “underwent apoptosis”, the IC70 (PJ34 cells; PJ34 NOTCH1 KO) was 24 nM and the IC70 (PJ34 cells; PJ34 parental) was 100 nM.
